Laboratory results reported in patent US4255183A, “Substituted phenyl urea and herbicides for use in paddy field” (Hokko Chemical Industry Co., Ltd., priority 1977, dated 1981).
Where two headings read alike, the source gives them in different places.

Key:
[1] = tested on: Echinochloa crus-galli var. oryzicola; experiment: Test Example 2: concrete pot test on killing effect, Echinochloa crus-galli var. oryzicola; assay type: in vivo; settings: Echinochloa crus-galli, 720 h; for inhibition at 9000 g/ha: 900 g/10 are
Experimental: (§1) In a Wagner pot of 1/500 are, paddy field soil (alluvial soil) was placed and 50 seeds of Echinochloa crus-galli var. oryzicola and 30 seeds of paddy rice were seeded in the surface layer of said soil and the submerging depth was kept at about 1 cm. When Echinochloa crus-galli var. oryzicola reached at the one leaf stage and 5-leaf stage, the emulsion of a predetermined concentration, prepared according to Example 4 was added dropwise. After 30 days from the treatment with the chemical, dry weights of Echinochloa crus-galli var. oryzicola and paddy rice were measured and the inhibition rate was calculated with reference to untreated area. [formula]
(§2) In a concrete pot of 1/400 are (50 cm×50 cm), paddy field soil (alluvial soil) was placed and 200 seeds of Echinochloa crus-galli var. oryzicola were seeded in 10 surface layer of said soil and the soil was submerged at about 3 cm depth. Before emergence of Echinochloa crus-galli var. oryzicola, paddy rice at 2.5-leaf stage (Asahi species) was transplanted at the rate of 8 stubs per pot, planting 3 seedlings per stub. At the one-leaf stage (3.5 leaves stage of paddy rice) and 5 leaves stage (7 leaves stage of paddy rice) of Echinochloa crus-galli var. oryzicola, the granule prepared according to Example 1 was applied. […] 30 Days after the treatment with the chemical, examination was made in the similar manner as Test Example 1 to obtain results as shown in Table 2.
(§3) In the table, as the comparative chemicals CPN, Benthiocarb, Molinate and Simetryne, those commercially available were used and the comparative chemicals A and B (as mentioned before) used were prepared according to the process for preparing the compound of this invention.

paddy rice [2] = experiment: whole plant or invertebrate; assay type: in vivo, paddy rice (Asahi species); settings: Oryza sativa, 720 h; for inhibition at 9000 g/ha: 900 g/10 are
Experimental: as §1, §2, §3

[3] = tested on: Echinochloa crus-galli var. oryzicola; experiment: Test Example 1: pot test on selectivity, inhibition of Echinochloa crus-galli var. oryzicola; assay type: in vivo; settings: dry weight 30 days after treatment; for inhibition at 750 g/ha / inhibition at 1500 g/ha / inhibition at 3000 g/ha / inhibition at 6000 g/ha / inhibition at 9000 g/ha: Echinochloa crus-galli, 720 h
Experimental: as §1
(§4) The comparative chemicals used, i.e. DCMU and Linuron, were those commercially available, and the comparative chemicals A and B used were prepared according to the process for formulating the compound of this invention.

paddy rice [4] = experiment: Test Example 1: pot test on selectivity, inhibition of paddy rice; assay type: in vivo; settings: dry weight 30 days after treatment
Experimental: as §1, with “When Echinochloa crus-galli var. oryzicola reached at the one leaf stage and 5-leaf stage, the emulsion of a predetermined concentration, prepared according to Example 4 was added dropwise.” left out
as §4

[5] = read-out: Inhibition (%) by treatment at 1-leaf stage of E. crus-galli var. oryzicola, E. crus-galli var. oryzicola
[6] = read-out: Inhibition (%) by treatment at 5-leaf stage of E. crus-galli var. oryzicola, E. crus-galli var. oryzicola
[7] = read-out: Inhibition (%) by treatment at 1-leaf stage of E. crus-galli var. oryzicola, paddy rice
[8] = read-out: Inhibition (%) by treatment at 5-leaf stage of E. crus-galli var. oryzicola, paddy rice

Work on CCNc1nc(NCC)nc(SC)n1 [Simetryne, 2,4-bis(ethylamino)-6-methylthio-1,3,5-triazine] yielded an inhibition at 300 g/ha [1, 5] of 20%, an inhibition at 1000 g/ha [1, 5] of 100% and an inhibition at 3000 g/ha [1, 5] of 100%. It also gave an inhibition at 300 g/ha [1, 6] of 0%, an inhibition at 1000 g/ha [1, 6] of 7% and an inhibition at 3000 g/ha [1, 6] of 36%. For the same compound, the inhibition at 300 g/ha (paddy rice [2]; [7]) was 0%, the inhibition at 1000 g/ha (paddy rice [2]; [7]) was 74% and the inhibition at 3000 g/ha (paddy rice [2]; [7]) was 100%. It also gave an inhibition at 300 g/ha (paddy rice [2]; [8]) of 0%, an inhibition at 1000 g/ha (paddy rice [2]; [8]) of 17% and an inhibition at 3000 g/ha (paddy rice [2]; [8]) of 46%.

CC=CCOc1ccc(NC(=O)N(C)C)cc1 [Mixture of trans- and cis-forms 1:4] was tested, and the “Inhibition (%) by treatment at 1-leaf stage, E. crus-galli var. oryzicola” value ([3]; 75 g/10 are, 1-leaf stage) was 93%, the “Inhibition (%) by treatment at 5-leaf stage, E. crus-galli var. oryzicola” value ([3]; 75 g/10 are, 5-leaf stage) was 84% and the “Inhibition (%) by treatment at 1-leaf stage, E. crus-galli var. oryzicola” value ([3]; 150 g/10 are, 1-leaf stage) was 100%. For the same compound, the “Inhibition (%) by treatment at 5-leaf stage, E. crus-galli var. oryzicola” value ([3]; 150 g/10 are, 5-leaf stage) was 100%, the “Inhibition (%) by treatment at 1-leaf stage, E. crus-galli var. oryzicola” value ([3]; 300 g/10 are, 1-leaf stage) was 100% and the “Inhibition (%) by treatment at 5-leaf stage, E. crus-galli var. oryzicola” value ([3]; 300 g/10 are, 5-leaf stage) was 100%. The “Inhibition (%) by treatment at 1-leaf stage, E. crus-galli var. oryzicola” value ([3]; 600 g/10 are, 1-leaf stage) was 100%, the “Inhibition (%) by treatment at 5-leaf stage, E. crus-galli var. oryzicola” value ([3]; 600 g/10 are, 5-leaf stage) was 100% and the “Inhibition (%) by treatment at 1-leaf stage, E. crus-galli var. oryzicola” value ([3]; 900 g/10 are, 1-leaf stage) was 100%. For the same compound, the “Inhibition (%) by treatment at 5-leaf stage, E. crus-galli var. oryzicola” value ([3]; 900 g/10 are, 5-leaf stage) was 100%, the “Inhibition (%) by treatment at 1-leaf stage, paddy rice” value (paddy rice [4]; 75 g/10 are, 1-leaf stage) was 0% and the “Inhibition (%) by treatment at 5-leaf stage, paddy rice” value (paddy rice [4]; 75 g/10 are, 5-leaf stage) was 0%. For the same compound, the “Inhibition (%) by treatment at 1-leaf stage, paddy rice” value (paddy rice [4]; 150 g/10 are, 1-leaf stage) was 0%, the “Inhibition (%) by treatment at 5-leaf stage, paddy rice” value (paddy rice [4]; 150 g/10 are, 5-leaf stage) was 0% and the “Inhibition (%) by treatment at 1-leaf stage, paddy rice” value (paddy rice [4]; 300 g/10 are, 1-leaf stage) was 0%. For the same compound, the “Inhibition (%) by treatment at 5-leaf stage, paddy rice” value (paddy rice [4]; 300 g/10 are, 5-leaf stage) was 0%, the “Inhibition (%) by treatment at 1-leaf stage, paddy rice” value (paddy rice [4]; 600 g/10 are, 1-leaf stage) was 0% and the “Inhibition (%) by treatment at 5-leaf stage, paddy rice” value (paddy rice [4]; 600 g/10 are, 5-leaf stage) was 0%. For the same compound, the “Inhibition (%) by treatment at 1-leaf stage, paddy rice” value (paddy rice [4]; 900 g/10 are, 1-leaf stage) was 4% and the “Inhibition (%) by treatment at 5-leaf stage, paddy rice” value (paddy rice [4]; 900 g/10 are, 5-leaf stage) was 0%.

CC=CCOc1ccc(NC(=O)N(C)C)cc1 [Mixture of trans- and cis-forms 4:1] showed an inhibition at 750 g/ha ([3]; 75 g/10 are, 1-leaf stage, read-out: Inhibition (%) by treatment at 1-leaf stage, E. crus-galli var. oryzicola) of 94%, an inhibition at 750 g/ha ([3]; 75 g/10 are, 5-leaf stage, read-out: Inhibition (%) by treatment at 5-leaf stage, E. crus-galli var. oryzicola) of 80% and an inhibition at 1500 g/ha ([3]; 150 g/10 are, 1-leaf stage, read-out: Inhibition (%) by treatment at 1-leaf stage, E. crus-galli var. oryzicola) of 100%. It also gave an inhibition at 1500 g/ha ([3]; 150 g/10 are, 5-leaf stage, read-out: Inhibition (%) by treatment at 5-leaf stage, E. crus-galli var. oryzicola) of 100%, an inhibition at 3000 g/ha ([3]; 300 g/10 are, 1-leaf stage, read-out: Inhibition (%) by treatment at 1-leaf stage, E. crus-galli var. oryzicola) of 100% and an inhibition at 3000 g/ha ([3]; 300 g/10 are, 5-leaf stage, read-out: Inhibition (%) by treatment at 5-leaf stage, E. crus-galli var. oryzicola) of 100%. For the same compound, the inhibition at 6000 g/ha ([3]; 600 g/10 are, 1-leaf stage, read-out: Inhibition (%) by treatment at 1-leaf stage, E. crus-galli var. oryzicola) was 100%, the inhibition at 6000 g/ha ([3]; 600 g/10 are, 5-leaf stage, read-out: Inhibition (%) by treatment at 5-leaf stage, E. crus-galli var. oryzicola) was 100% and the inhibition at 9000 g/ha ([3]; 900 g/10 are, 1-leaf stage, read-out: Inhibition (%) by treatment at 1-leaf stage, E. crus-galli var. oryzicola) was 100%. For the same compound, the inhibition at 9000 g/ha ([3]; 900 g/10 are, 5-leaf stage, read-out: Inhibition (%) by treatment at 5-leaf stage, E. crus-galli var. oryzicola) was 100%, the “Inhibition (%) by treatment at 1-leaf stage, paddy rice” value (paddy rice [4]; 900 g/10 are, 1-leaf stage) was 1% and the inhibition at 750 g/ha (paddy rice [4]; Oryza sativa, 720 h, 75 g/10 are, 1-leaf stage, read-out: Inhibition (%) by treatment at 1-leaf stage, paddy rice) was 0%. For the same compound, the inhibition at 750 g/ha (paddy rice [4]; Oryza sativa, 720 h, 75 g/10 are, 5-leaf stage, read-out: Inhibition (%) by treatment at 5-leaf stage, paddy rice) was 0%, the inhibition at 1500 g/ha (paddy rice [4]; Oryza sativa, 720 h, 150 g/10 are, 1-leaf stage, read-out: Inhibition (%) by treatment at 1-leaf stage, paddy rice) was 0% and the inhibition at 1500 g/ha (paddy rice [4]; Oryza sativa, 720 h, 150 g/10 are, 5-leaf stage, read-out: Inhibition (%) by treatment at 5-leaf stage, paddy rice) was 0%. The inhibition at 3000 g/ha (paddy rice [4]; Oryza sativa, 720 h, 300 g/10 are, 1-leaf stage, read-out: Inhibition (%) by treatment at 1-leaf stage, paddy rice) was 0%, the inhibition at 3000 g/ha (paddy rice [4]; Oryza sativa, 720 h, 300 g/10 are, 5-leaf stage, read-out: Inhibition (%) by treatment at 5-leaf stage, paddy rice) was 0% and the inhibition at 6000 g/ha (paddy rice [4]; Oryza sativa, 720 h, 600 g/10 are, 1-leaf stage, read-out: Inhibition (%) by treatment at 1-leaf stage, paddy rice) was 0%. For the same compound, the inhibition at 6000 g/ha (paddy rice [4]; Oryza sativa, 720 h, 600 g/10 are, 5-leaf stage, read-out: Inhibition (%) by treatment at 5-leaf stage, paddy rice) was 0% and the inhibition at 9000 g/ha (paddy rice [4]; Oryza sativa, 720 h, 900 g/10 are, 5-leaf stage, read-out: Inhibition (%) by treatment at 5-leaf stage, paddy rice) was 0%.

For O=[N+]([O-])c1ccc(Oc2c(Cl)cc(Cl)cc2Cl)cc1 [CNP, 2,4,6-trichlorophenyl-4'-nitrophenylether], the inhibition at 1000 g/ha ([1]; 100 g/10 are, granule, 30 days after treatment, read-out: Inhibition (%) by treatment at 1-leaf stage of E. crus-galli var. oryzicola, E. crus-galli var. oryzicola) was 65%, the inhibition at 1000 g/ha ([1]; 100 g/10 are, granule, 30 days after treatment, read-out: Inhibition (%) by treatment at 5-leaf stage of E. crus-galli var. oryzicola, E. crus-galli var. oryzicola) was 0% and the inhibition at 3000 g/ha ([1]; 300 g/10 are, granule, 30 days after treatment, read-out: Inhibition (%) by treatment at 1-leaf stage of E. crus-galli var. oryzicola, E. crus-galli var. oryzicola) was 100%. For the same compound, the inhibition at 3000 g/ha ([1]; 300 g/10 are, granule, 30 days after treatment, read-out: Inhibition (%) by treatment at 5-leaf stage of E. crus-galli var. oryzicola, E. crus-galli var. oryzicola) was 0%, the inhibition at 9000 g/ha ([1]; granule, 30 days after treatment, read-out: Inhibition (%) by treatment at 1-leaf stage of E. crus-galli var. oryzicola, E. crus-galli var. oryzicola) was 100% and the inhibition at 9000 g/ha ([1]; granule, 30 days after treatment, read-out: Inhibition (%) by treatment at 5-leaf stage of E. crus-galli var. oryzicola, E. crus-galli var. oryzicola) was 0%. It also gave an inhibition at 1000 g/ha (paddy rice [2]; 100 g/10 are, granule, rice at 3.5 leaves stage, 30 days, read-out: Inhibition (%) by treatment at 1-leaf stage of E. crus-galli var. oryzicola, paddy rice) of 0%, an inhibition at 1000 g/ha (paddy rice [2]; 100 g/10 are, granule, rice at 7 leaves stage, 30 days, read-out: Inhibition (%) by treatment at 5-leaf stage of E. crus-galli var. oryzicola, paddy rice) of 0% and an inhibition at 3000 g/ha (paddy rice [2]; 300 g/10 are, granule, rice at 3.5 leaves stage, 30 days, read-out: Inhibition (%) by treatment at 1-leaf stage of E. crus-galli var. oryzicola, paddy rice) of 8%. It also gave an inhibition at 3000 g/ha (paddy rice [2]; 300 g/10 are, granule, rice at 7 leaves stage, 30 days, read-out: Inhibition (%) by treatment at 5-leaf stage of E. crus-galli var. oryzicola, paddy rice) of 0%, an inhibition at 9000 g/ha (paddy rice [2]; granule, rice at 3.5 leaves stage, 30 days, read-out: Inhibition (%) by treatment at 1-leaf stage of E. crus-galli var. oryzicola, paddy rice) of 52% and an inhibition at 9000 g/ha (paddy rice [2]; granule, rice at 7 leaves stage, 30 days, read-out: Inhibition (%) by treatment at 5-leaf stage of E. crus-galli var. oryzicola, paddy rice) of 0%.
